Assay results published in PubChem BioAssay (NCI).
Values joined by “and” are separate entries in the source; they are usually repeats but may differ in a detail not shown here. Equal values may be shown once.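 How tested: cells in 96-well plates exposed to compound for 48 hours at five concentrations. The concentration for 50% growth inhibition is given as GI50. At the TGI there is no net growth.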

Tested on: MDA-MB-468 breast
Assay: inhibition of tumour cell growth, NCI panel, 48 h

## Oc1ccc(N=Nc2ccc(N=Nc3ccccc3)cc2)cc1
  GI50: 4.41 µM
  TGI: 19.6 µM

## OC(CNC1CCCC1)Cn1c2ccccc2c2ccccc21 (configuration not stated)
  GI50: 40.7 µM
  TGI: > 100 µM

## CCC(C)[C@H]1C(=O)O[C@H](C(C)C)C(=O)N(C)[C@@H](C(C)C)C(=O)O[C@H](C(C)C)C(=O)N(C)[C@@H](C(C)C)C(=O)O[C@H](C(C)C)C(=O)N1C (some centres not stated)
  GI50: 0.542 µM
  TGI: > 10 µM

## COC(=O)[C@@]1(O)C[C@H]2O[C@]1(C)n1c3ccccc3c3c4c(c5c6ccccc6n2c5c31)C(=O)NC4
  GI50: 1.34 µM
  TGI: 3.06 µM

## COc1ccc2nc(C)cc(Nc3ccccc3O)c2c1
  GI50: 13.8 µM
  TGI: 45.6 µM

## O=C(N/N=C\c1ccc(N(CCCl)CCCl)cc1Cl)c1cccnc1
  GI50: 0.0458 µM
  TGI: 0.328 µM

## CN(C)c1ccc(O)c2c1C[C@H]1C[C@H]3[C@H](N(C)C)C(=O)C(C(N)=O)=C(O)[C@@]3(O)C(=O)C1=C2O
  GI50: 3.24 µM
  TGI: 35.1 µM

## COc1cccc2c(=O)c3c(sc12)c(NCCN(C)C)nc1ccccc13
  GI50: 1.5 µM
  TGI: 3.15 µM

## O=C(/C=C/c1ccc(C(F)(F)F)cc1)c1ccc(Nc2nc(NCCO)nc(N3CCOCC3)n2)cc1
  GI50: 1.8 µM
  TGI: 3.86 µM

## Clc1ccc2c(c1)-c1ccccc1C1=NCCN12
  GI50: 1.54 µM
  TGI: 3.15 µM

## COc1ccc([C@H]2[C@H](O)C(=O)N2c2cc(OC)c(OC)c(OC)c2)cc1Cl
  GI50: < 0.01 µM
  TGI: > 100 µM

## CCCN(CCC)C(=O)[C@H](CC)[C@@H]1CC[C@@H](C)[C@@H]([C@H](C)[C@@H](O)[C@@H](C)C(=O)[C@H](CC)C2O[C@]3(C=C[C@@H](O)[C@]4(CC[C@@](C)([C@H]5CC[C@](O)(CC)[C@H](C)O5)O4)O3)[C@H](C)C[C@@H]2C)O1 (some centres not stated)
  GI50: 1.72 µM
  TGI: 5.33 µM

## CCCCCCCCCCCC[n+]1ccc(C(N)=O)cc1
  GI50: 0.633 µM
  TGI: 2.92 µM

## COc1ccc2c(c1)OC(N)=C(C#N)C2c1ccc(F)cc1 (configuration not stated)
  GI50: 0.401 µM
  TGI: 33.9 µM

## OC(CNc1ccnc2cc(Cl)ccc12)CNC1CCCCC1 (configuration not stated)
  GI50: 1.7 µM
  TGI: 3.79 µM

## COCCNC(=O)c1ccc(-c2nc3ccc4[nH]ncc4c3c3c2CCCC3)cc1
  GI50: 2.46 µM
  TGI: 50 µM

## C=C1CC[C@@H]2[C@](C)(COC(C)=O)[C@H](OC(C)=O)CC[C@@]2(C)[C@@H]1C/C=C1/C(=O)OC[C@H]1OC(C)=O
  GI50: 2.04 µM
  TGI: 5.69 µM

## CCOC(=O)C#Cc1c(CC(=O)OCC)nnn1[C@H]1O[C@@H](CO)[C@@H]2OC(C)(C)O[C@@H]21
  GI50: 2.09 µM
  TGI: 4.5 µM

## NCCCCN(Cc1nc2ccccc2[nH]1)[C@H]1CCCc2cccnc21
  GI50: 10.4 µM
  TGI: 30.8 µM

## CCCCCN(CCCCC)CC(O)c1cc2c(c3ccccc13)CCCC2 (configuration not stated)
  GI50: 4.34 µM and 12.2 µM
  TGI: 17.2 µM and 28 µM

## CS(=O)(=O)Nc1cc(-c2ccc3ncnc(Nc4ccc5c(cnn5Cc5ccccc5F)c4)c3c2)cnc1Cl
  GI50: 0.609 µM
  TGI: 2.56 µM
